Experimental data published in PMC6789174 (Drug Design, Development and Therapy, 2019).
Converted amounts (≈) assume the structure as drawn.

Assays:
[1] = DPPH free radical scavenging
Staphylococcus aureus = assay: Anti-bacterial activity, agar well diffusion; format: cell-based; conditions: for MIC: read-out: MIC, Staphylococcus aureus; for zone of inhibition at 10 µg/mL / zone of inhibition at 20 µg/mL / zone of inhibition at 30 µg/mL: read-out: ZI (Zone of inhibition), Staphylococcus aureus
Butyrylcholinesterase = Butyrylcholinesterase (Homo sapiens, UniProt P06276); assay: Anticholinesterase assay; format: biochemical; conditions: for inhibition at 125 µg/mL / inhibition at 250 µg/mL / inhibition at 500 µg/mL / inhibition at 1000 µg/mL: read-out: %BChE Inhibition (mean ± SEM)
Proteus vulgaris = assay: Anti-bacterial activity, agar well diffusion; format: cell-based; conditions: for MIC: read-out: MIC, Proteus vulgaris; for zone of inhibition at 10 µg/mL / zone of inhibition at 20 µg/mL / zone of inhibition at 30 µg/mL: read-out: ZI (Zone of inhibition), Proteus vulgaris
[2] = tested on: Agrobacterium tumefaction; assay: Anti-bacterial activity, agar well diffusion; format: cell-based; conditions: for MIC: read-out: MIC, Agrobacterium tumefaction; for zone of inhibition at 10 µg/mL / zone of inhibition at 20 µg/mL / zone of inhibition at 30 µg/mL: read-out: ZI (Zone of inhibition), Agrobacterium tumefaction
[3] = ABTS free radical scavenging
Acetylcholinesterase = Acetylcholinesterase (Homo sapiens, UniProt P22303); assay: biochemical; conditions: for inhibition at 125 µg/mL / inhibition at 250 µg/mL / inhibition at 500 µg/mL / inhibition at 1000 µg/mL: read-out: %AChE Inhibition (mean ± SEM)
porcine α-amylase = target: T1, porcine α-amylase (Sus scrofa, UniProt P00690); assay: biochemical; conditions: for inhibition at 125 µg/mL: read-out: %Inhibition (mean ± SEM), alpha amylase, concentration 125 µg/mL; for inhibition at 250 µg/mL: read-out: %Inhibition (mean ± SEM), alpha amylase, concentration 250 µg/mL; for inhibition at 1000 µg/mL: read-out: %Inhibition (mean ± SEM), alpha amylase, concentration 1000 µg/mL
T1 sequence (P00690 16-511): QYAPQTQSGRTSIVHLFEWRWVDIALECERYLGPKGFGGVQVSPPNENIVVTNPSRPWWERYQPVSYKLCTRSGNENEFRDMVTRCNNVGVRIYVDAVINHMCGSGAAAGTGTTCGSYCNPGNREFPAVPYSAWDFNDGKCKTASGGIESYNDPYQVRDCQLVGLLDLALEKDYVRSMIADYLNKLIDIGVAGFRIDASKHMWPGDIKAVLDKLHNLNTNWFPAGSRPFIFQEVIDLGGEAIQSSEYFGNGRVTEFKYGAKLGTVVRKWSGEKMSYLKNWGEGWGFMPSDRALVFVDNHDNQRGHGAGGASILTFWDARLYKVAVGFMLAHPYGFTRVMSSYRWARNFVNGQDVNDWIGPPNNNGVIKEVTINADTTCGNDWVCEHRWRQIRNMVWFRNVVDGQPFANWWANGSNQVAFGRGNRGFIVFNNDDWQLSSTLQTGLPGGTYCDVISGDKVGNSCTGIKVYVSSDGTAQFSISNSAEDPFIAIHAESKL

glucose-6-phosphatase = target: T2, glucose-6-phosphatase (Homo sapiens, UniProt P35575); assay: Glucose-6-phosphatase activity; format: biochemical; conditions: for Total Activity of glucose-6-phosphatase: 33°C, pH 6.7, control 72.0
T2 sequence (P35575 1-357): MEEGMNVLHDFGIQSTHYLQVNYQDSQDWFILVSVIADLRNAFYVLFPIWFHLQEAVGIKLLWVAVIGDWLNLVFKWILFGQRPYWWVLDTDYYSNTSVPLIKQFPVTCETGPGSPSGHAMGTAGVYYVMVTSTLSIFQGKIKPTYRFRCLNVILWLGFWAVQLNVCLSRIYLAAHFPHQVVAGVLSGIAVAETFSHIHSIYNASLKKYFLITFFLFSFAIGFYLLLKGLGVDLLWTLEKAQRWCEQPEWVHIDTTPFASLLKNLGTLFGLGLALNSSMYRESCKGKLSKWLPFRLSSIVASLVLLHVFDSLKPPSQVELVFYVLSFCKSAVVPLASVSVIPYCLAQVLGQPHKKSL

Acetylcholinesterase, sequence (P22303 32-614, species assumed): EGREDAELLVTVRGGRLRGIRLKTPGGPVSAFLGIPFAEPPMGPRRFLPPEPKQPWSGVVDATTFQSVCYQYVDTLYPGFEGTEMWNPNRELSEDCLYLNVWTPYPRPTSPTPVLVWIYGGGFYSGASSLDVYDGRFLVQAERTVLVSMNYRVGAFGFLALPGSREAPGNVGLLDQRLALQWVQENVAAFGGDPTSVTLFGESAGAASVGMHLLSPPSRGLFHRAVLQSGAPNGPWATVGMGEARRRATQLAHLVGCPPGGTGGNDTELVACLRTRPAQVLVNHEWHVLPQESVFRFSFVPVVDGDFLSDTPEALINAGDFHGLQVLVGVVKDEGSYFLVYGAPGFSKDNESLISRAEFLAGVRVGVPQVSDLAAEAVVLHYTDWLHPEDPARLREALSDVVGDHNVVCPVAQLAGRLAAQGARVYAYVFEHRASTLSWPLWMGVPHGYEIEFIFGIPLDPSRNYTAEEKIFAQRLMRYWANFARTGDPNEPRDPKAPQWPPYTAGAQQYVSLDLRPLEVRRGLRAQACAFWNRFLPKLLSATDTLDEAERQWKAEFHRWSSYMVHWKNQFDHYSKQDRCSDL
Butyrylcholinesterase, sequence (P06276 29-602): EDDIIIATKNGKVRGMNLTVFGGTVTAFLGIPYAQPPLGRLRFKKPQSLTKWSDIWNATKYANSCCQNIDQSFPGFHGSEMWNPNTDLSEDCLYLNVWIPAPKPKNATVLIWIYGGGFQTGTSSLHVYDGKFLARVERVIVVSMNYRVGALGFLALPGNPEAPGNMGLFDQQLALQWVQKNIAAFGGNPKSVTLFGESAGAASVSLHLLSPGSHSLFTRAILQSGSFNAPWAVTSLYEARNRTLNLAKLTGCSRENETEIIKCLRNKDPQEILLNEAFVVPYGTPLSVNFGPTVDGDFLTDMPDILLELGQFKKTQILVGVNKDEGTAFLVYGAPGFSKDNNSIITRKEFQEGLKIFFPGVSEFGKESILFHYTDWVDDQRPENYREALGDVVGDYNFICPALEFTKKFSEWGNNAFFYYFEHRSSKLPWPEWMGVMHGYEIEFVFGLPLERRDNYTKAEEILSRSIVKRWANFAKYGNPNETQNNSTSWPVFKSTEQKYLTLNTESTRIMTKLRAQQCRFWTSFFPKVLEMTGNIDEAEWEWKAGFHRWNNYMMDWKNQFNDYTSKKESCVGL

In the case of `S=C(Nc1ccccc1)NC(c1ccccn1)C(Cc1ccccc1)Cc1ccccc1` (stereo not drawn) [Compound III, 1-(2-benzyl-3-phenyl-1-(pyridine-2-yl)propyl)-3-phenylthiourea], the “DPPH IC50” value [1] is reported as 79 µg/mL, the “DPPH % I (mean ± S.E.M)” value ([1]; concentration 125 μg/mL) is reported as 61.14±0.177% and the “DPPH % I (mean ± S.E.M)” value ([1]; concentration 250 μg/mL) is reported as 64.74 ± 0.267%. The “DPPH % I (mean ± S.E.M)” value ([1]; concentration 500 μg/mL) was 66.07 ± 0.283%, the “DPPH % I (mean ± S.E.M)” value ([1]; concentration 1000 μg/mL) was 67.45 ± 0.095% and the MIC (Staphylococcus aureus) was 14.9 µg/mL (≈ 34.1 µM). For the same molecule, the zone of inhibition at 10 µg/mL (Staphylococcus aureus) was 15 mm, the zone of inhibition at 20 µg/mL (Staphylococcus aureus) was 16 mm and the zone of inhibition at 30 µg/mL (Staphylococcus aureus) was 19 mm. The IC50 (Butyrylcholinesterase) was 183 µM, the inhibition at 125 µg/mL (Butyrylcholinesterase) was 58.3 ± 1.06% and the inhibition at 250 µg/mL (Butyrylcholinesterase) was 61.8 ± 1.54%. It also gave an inhibition at 500 µg/mL (Butyrylcholinesterase) of 63.8 ± 1.53%, an inhibition at 1000 µg/mL (Butyrylcholinesterase) of 68.5 ± 1.07% and an MIC (Proteus vulgaris) of 15 µg/mL (≈ 34.2 µM). For the same molecule, the zone of inhibition at 10 µg/mL (Proteus vulgaris) was 12 mm, the zone of inhibition at 20 µg/mL (Proteus vulgaris) was 16 mm and the zone of inhibition at 30 µg/mL (Proteus vulgaris) was 22 mm. The MIC [2] was 11.6 µg/mL (≈ 26.6 µM), the zone of inhibition at 10 µg/mL [2] was 15 mm and the zone of inhibition at 20 µg/mL [2] was 20 mm. The zone of inhibition at 30 µg/mL [2] was 26 mm, the “ABTS IC50” value [3] was 80 µg/mL and the “ABTS % I (mean ± S.E.M)” value ([3]; concentration 125 μg/mL) was 64.77 ±0.087%. For the same molecule, the “ABTS % I (mean ± S.E.M)” value ([3]; concentration 250 μg/mL) was 66.25 ±0.123%, the “ABTS % I (mean ± S.E.M)” value ([3]; concentration 500 μg/mL) was 68.27 ± 0.532% and the “ABTS % I (mean ± S.E.M)” value ([3]; concentration 1000 μg/mL) was 69.11 ± 0.234%. For the same molecule, the IC50 (Acetylcholinesterase) was 144 µM, the inhibition at 125 µg/mL (Acetylcholinesterase) was 62.2 ± 1.12% and the inhibition at 250 µg/mL (Acetylcholinesterase) was 66.5 ± 2.08%. The inhibition at 500 µg/mL (Acetylcholinesterase) was 75.7 ± 1.15%, the inhibition at 1000 µg/mL (Acetylcholinesterase) was 84.3 ± 1.12% and the IC50 (porcine α-amylase) was 263 µM. For the same molecule, the “%Inhibition (mean ± SEM), alpha amylase” value (porcine α-amylase; concentration 250 μg/mL) was 57.91 ± 0.43%, the inhibition at 125 µg/mL (porcine α-amylase) was 50.1 ± 2.11% and the inhibition at 250 µg/mL (porcine α-amylase) was 62.5 ± 1.24%. For the same molecule, the inhibition at 1000 µg/mL (porcine α-amylase) was 65.8 ± 1.13%, the “Total Activity of glucose-6-phosphatase” value (glucose-6-phosphatase; concentration 125 µg/mL) was 32.04 mg of P released per hour and the “Total Activity of glucose-6-phosphatase” value (glucose-6-phosphatase; concentration 250 µg/mL) was 28.35 mg of P released per hour. For the same molecule, the “Total Activity of glucose-6-phosphatase” value (glucose-6-phosphatase; concentration 500 µg/mL) was 27.10 mg of P released per hour.
For `Fc1ccccc1NC(=S)Nc1ccccc1` [Compound V, 1-(2-fluorophenyl)-3-phenylthiourea], the “DPPH IC50” value [1] was 70 µg/mL, the “DPPH % I (mean ± S.E.M)” value ([1]; concentration 125 μg/mL) was 68.83 ± 1.53% and the “DPPH % I (mean ± S.E.M)” value ([1]; concentration 250 μg/mL) was 70.55 ± 1.27%. For the same molecule, the “DPPH % I (mean ± S.E.M)” value ([1]; concentration 500 μg/mL) was 71.50 ± 1.61%, the “DPPH % I (mean ± S.E.M)” value ([1]; concentration 1000 μg/mL) was 73.14 ± 1.10% and the MIC (Staphylococcus aureus) was 24.1 µg/mL (≈ 97.9 µM). For the same molecule, the zone of inhibition at 10 µg/mL (Staphylococcus aureus) was 12 mm, the zone of inhibition at 20 µg/mL (Staphylococcus aureus) was 14 mm and the zone of inhibition at 30 µg/mL (Staphylococcus aureus) was 16 mm. It also gave an IC50 (Butyrylcholinesterase) of 406 µM, an inhibition at 125 µg/mL (Butyrylcholinesterase) of 53.07 ± 0.48% and an inhibition at 250 µg/mL (Butyrylcholinesterase) of 55.1 ± 1.04%. It also gave an inhibition at 500 µg/mL (Butyrylcholinesterase) of 59.1 ± 1.76%, an inhibition at 1000 µg/mL (Butyrylcholinesterase) of 62.7 ± 1.22% and an MIC (Proteus vulgaris) of 8.94 µg/mL (≈ 36.3 µM). It also gave a zone of inhibition at 10 µg/mL (Proteus vulgaris) of 16 mm, a zone of inhibition at 20 µg/mL (Proteus vulgaris) of 21 mm and a zone of inhibition at 30 µg/mL (Proteus vulgaris) of 24 mm. The MIC [2] was 11.6 µg/mL (≈ 47.1 µM), the zone of inhibition at 10 µg/mL [2] was 15 mm and the zone of inhibition at 20 µg/mL [2] was 20 mm. For the same molecule, the zone of inhibition at 30 µg/mL [2] was 25 mm, the “ABTS IC50” value [3] was 85 µg/mL and the “ABTS % I (mean ± S.E.M)” value ([3]; concentration 125 μg/mL) was 69.45 ± 1.29%. For the same molecule, the “ABTS % I (mean ± S.E.M)” value ([3]; concentration 250 μg/mL) was 71.14 ± 1.90%, the “ABTS % I (mean ± S.E.M)” value ([3]; concentration 500 μg/mL) was 73.18 ± 1.46% and the “ABTS % I (mean ± S.E.M)” value ([3]; concentration 1000 μg/mL) was 75.04 ± 0.10%. It also gave an IC50 (Acetylcholinesterase) of 739 µM, an inhibition at 125 µg/mL (Acetylcholinesterase) of 51.8 ± 1.72% and an inhibition at 250 µg/mL (Acetylcholinesterase) of 56.3 ± 2.14%. The inhibition at 500 µg/mL (Acetylcholinesterase) was 68.2 ± 1.25%, the inhibition at 1000 µg/mL (Acetylcholinesterase) was 70.2 ± 1.09% and the IC50 (porcine α-amylase) was 406 µM. The inhibition at 125 µg/mL (porcine α-amylase) was 52.1 ± 2.11%, the inhibition at 250 µg/mL (porcine α-amylase) was 55.91 ± 0.43% and the inhibition at 500 µg/mL (porcine α-amylase; read-out: %Inhibition (mean ± SEM), alpha amylase, concentration 500 µg/mL) was 59.5 ± 1.24%. For the same molecule, the inhibition at 1000 µg/mL (porcine α-amylase) was 62.8 ± 1.13%, the “Glucose-6-phosphatase inhibition, in words” value (glucose-6-phosphatase; compared to control experiments) was “most potent inhibitors” and the “Total Activity of glucose-6-phosphatase” value (glucose-6-phosphatase; concentration 125 µg/mL) was 05.66 mg of P released per hour. The “Total Activity of glucose-6-phosphatase” value (glucose-6-phosphatase; concentration 250 µg/mL) was 05.21 mg of P released per hour and the “Total Activity of glucose-6-phosphatase” value (glucose-6-phosphatase; concentration 500 µg/mL) was 04.16 mg of P released per hour.
For `COc1ccc2c3c1O[C@H]1C[C@@H](O)C=C[C@@]31CCN(C)C2` [Galantamine, reference compound], the “%BChE Inhibition (mean ± SEM)” value (Butyrylcholinesterase; concentration 500 μg/mL) was 87.16 ± 1.23%, the inhibition at 125 µg/mL (Butyrylcholinesterase) was 64.8 ± 0.73% and the inhibition at 1000 µg/mL (Butyrylcholinesterase) was 92.3 ± 0.74%.
